The target in assay [1] is T1, PfATP4^WT (membranes from Dd2-Polδ parasites) (Plasmodium falciparum, UniProt A0A143ZZK9).
T1 sequence (A0A143ZZK9 1-1264): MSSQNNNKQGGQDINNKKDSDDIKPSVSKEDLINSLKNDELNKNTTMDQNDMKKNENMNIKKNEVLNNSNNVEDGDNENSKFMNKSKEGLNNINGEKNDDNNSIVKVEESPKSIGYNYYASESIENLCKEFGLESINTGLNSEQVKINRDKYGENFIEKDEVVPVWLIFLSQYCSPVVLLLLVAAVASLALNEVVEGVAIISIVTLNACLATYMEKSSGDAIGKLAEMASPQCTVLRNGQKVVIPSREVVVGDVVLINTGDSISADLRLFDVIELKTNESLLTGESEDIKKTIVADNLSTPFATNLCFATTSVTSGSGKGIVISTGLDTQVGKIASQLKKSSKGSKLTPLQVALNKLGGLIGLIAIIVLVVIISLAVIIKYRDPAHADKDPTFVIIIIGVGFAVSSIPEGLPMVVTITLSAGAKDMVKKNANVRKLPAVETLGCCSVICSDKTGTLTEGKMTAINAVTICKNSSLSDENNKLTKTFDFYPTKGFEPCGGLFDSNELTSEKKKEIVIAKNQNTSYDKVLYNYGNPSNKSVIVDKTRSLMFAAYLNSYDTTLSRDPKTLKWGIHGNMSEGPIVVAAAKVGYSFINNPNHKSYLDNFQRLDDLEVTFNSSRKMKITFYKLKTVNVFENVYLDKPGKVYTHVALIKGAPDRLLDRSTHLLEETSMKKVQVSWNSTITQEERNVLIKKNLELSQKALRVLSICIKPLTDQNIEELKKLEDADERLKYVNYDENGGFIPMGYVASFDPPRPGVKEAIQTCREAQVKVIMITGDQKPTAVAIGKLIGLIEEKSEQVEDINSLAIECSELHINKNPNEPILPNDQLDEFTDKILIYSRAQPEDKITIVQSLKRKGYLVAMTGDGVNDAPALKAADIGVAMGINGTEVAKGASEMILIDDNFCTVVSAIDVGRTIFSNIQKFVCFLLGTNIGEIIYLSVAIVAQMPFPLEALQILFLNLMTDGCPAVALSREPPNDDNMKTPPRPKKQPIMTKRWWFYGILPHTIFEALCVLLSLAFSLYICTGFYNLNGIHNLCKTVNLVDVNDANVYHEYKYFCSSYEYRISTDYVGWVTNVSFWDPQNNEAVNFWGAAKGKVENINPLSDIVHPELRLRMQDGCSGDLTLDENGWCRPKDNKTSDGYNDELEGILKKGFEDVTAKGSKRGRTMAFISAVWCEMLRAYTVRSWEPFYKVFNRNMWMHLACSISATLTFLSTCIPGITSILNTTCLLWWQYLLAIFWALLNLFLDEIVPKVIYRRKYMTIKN
Put plainly: Membrane ATPase assay, ATP4-associated (Na+-dependent) ATPase activity. Format: biochemical. Conditions: for IC50 for inhibition of ATP4-associated ATPase activity, MEAN: Dd2-Polδ membranes, source data of Table 1 (nM there); for PfATP4-associated ATPase activity (% of control): single experiments; for IC50 for ATP4-associated ATPase activity: membranes from Dd2-Polδ, mean ± SEM. On the procedure:
Membranes from isolated P. falciparum or extracellular T. gondii parasites were prepared by lysing parasites in ice-cold deionized water containing a 1:500 dilution of Protease Inhibitor Cocktail Set III (Merck Millipore), then washing the membrane preparation three times in ice-cold deionized water (with protease inhibitors present for the first two washes)[15]. Protein concentrations in the membrane preparations were measured using a Bradford assay. The PiColorLock Gold Phosphate Detection System (Innova Biosciences) was used to measure the production of Pi from hydrolysis of ATP[15]. Membrane preparations were diluted in either a high Na^+ solution (yielding final conditions in the reactions of 150 mM NaCl, 20 mM KCl, 2 mM MgCl2, 50 mM Tris, pH 7.2) or a Na^+-free solution (yielding final conditions of 150 mM choline chloride, 20 mM KCl, 2 mM MgCl2, 50 mM Tris, pH 7.2) to achieve a total protein concentration of 50 μg/mL. […] The reactions were performed at 37 °C, and were initiated by the addition of 1 mM ATP (Na2ATP۰3H2O; MP Biomedicals) and terminated 10 min later by adding 100 μL of reaction mixture (in duplicate) to 25 μL “Gold mix” in a 96-well plate. “Stabiliser” was added 3 min later, and the plates incubated at room temperature in the dark for 60 min before measuring absorbance at 635 nm. Background values (averaged from wells containing all components, but to which ATP was not added until after the membrane was exposed to Gold mix) were subtracted from the data. For each treatment, the ATPase activity associated with the (Na^+-dependent) PfATP4 and TgATP4 proteins was calculated by subtracting data obtained in the low Na^+ condition (containing only the 2 mM Na^+ introduced on addition of 1 mM Na2ATP) from that obtained in the high Na^+ condition.

The next assay deals with NF54^WT parasites. Put plainly: microbe, parasite or virus in culture. Format: cell-based, Plasmodium falciparum. Particulars: for FC (IC50) / FC (IC90): reference line. The essentials: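 Predominantly ring-stage cultures at 0.3% parasitaemia, 1% haematocrit, in medium with 10% O+ human serum; compound exposure 72 h, DMSO <0.5% (v/v). Live parasites counted by flow cytometry with SYBR Green I and 200 nM MitoTracker Deep Red. IC50/IC90 from linear interpolation of dose-response data.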

Assay [2] has as its system HCR2 parasites (highly cipargamin-resistant clone 2). Put plainly: P. falciparum proliferation assay (72 h, fluorescent DNA-intercalating dye). Format: cell-based, Plasmodium falciparum. Particulars: for Parasite proliferation (% of no-cipargamin control), MEAN: MEAN of 16 experiments; for IC50: Plasmodium falciparum. On the procedure:
For experiments with all other parasites, the effects of compounds of interest on parasite proliferation was measured in 96-well plates containing serial dilutions of the compounds in culture medium, with a fluorescent DNA-intercalating dye used to detect surviving parasites. The assays were initiated with erythrocytes infected with predominantly ring-stage parasites, and the starting parasitaemia and haematocrit were both 1%.

Setting [3] is: NF54WT parasites, individual experiments, read-out: IC90 values.
[4] abbreviates: NF54WT, single experiments, source data of Fig. 2 (nM in Supplementary Table 5), read-out: IC50 values.
Setting [5] is: Plasmodium falciparum, NF54, NF54WT parasites, individual experiments, read-out: IC90 values.
Setting [6] is: Plasmodium falciparum, NF54, NF54WT parasites, mean of the experiments, read-out: IC90 values, MEAN.
[7] abbreviates: Plasmodium falciparum, NF54, NF54WT, MEAN, source data of Fig. 2, read-out: IC50 values, MEAN.
Where [8] appears, read: Plasmodium falciparum, NF54, NF54WT, single experiments, source data of Fig. 2 (nM in Supplementary Table 5), read-out: IC50 values.
[9] abbreviates: HCR2, MEAN, source data of Fig. 2, read-out: IC50 values, MEAN.
The mark [10] stands for this setting: read-out: Mean IC50 value ± SEM for growth inhibition, HCR2, Supplementary Table 1, Set 1.

The structures appear in SMILES notation. Where “and” joins values, the source holds several entries; their conditions need not be identical. Equal entries are not always repeated. Where two headings read alike, the source gives them in different places.

As usually defined, the IC90 is the concentration at which the effect reaches the 90% level. Broadly, the IC50 is the concentration that gives 50% inhibition.

`C[C@H]1Cc2c([nH]c3cc(Cl)c(F)cc23)[C@@]2(N1)C(=O)Nc1ccc(Cl)cc12` [Cipargamin]: the “IC50 for inhibition of ATP4-associated ATPase activity, MEAN” value in assay [1] (MEAN) was found to be 2.51. In addition, the remaining activity at 3.76 pM in assay [1] (Dd2-Polδ, [Cipargamin] 0.00376 nM, MEAN, read-out: PfATP4-associated ATPase activity (% of control)) came to 75.4%. Moreover, the remaining activity at 11 pM in assay [1] (Dd2-Polδ, [Cipargamin] 0.011 nM, MEAN, read-out: PfATP4-associated ATPase activity (% of control)) amounted to 75%. For the same compound, the “PfATP4-associated ATPase activity (% of control)” value is 92.1 % of control and 50.6 % of control and 82.7 % of control and 74.5 % of control in assay [1] (Dd2-Polδ, [Cipargamin] 0.011 nM, 11 pM); 59.8 % of control and 42.8 % of control and 70.9 % of control and 66.9 % of control in assay [1] (Dd2-Polδ, [Cipargamin] 0.305 nM, 0.000305 µM). Further, in assay [1] (Dd2-Polδ, [Cipargamin] 0.034 nM, MEAN, read-out: PfATP4-associated ATPase activity (% of control)), the remaining activity at 34 pM is 76%. For the same compound, the remaining activity at 0.000102 µM in assay [1] (Dd2-Polδ, [Cipargamin] 0.102 nM, MEAN, read-out: PfATP4-associated ATPase activity (% of control)) worked out at 66.1%. Also, in assay [1] (Dd2-Polδ, [Cipargamin] 0.305 nM, MEAN, read-out: PfATP4-associated ATPase activity (% of control)), the remaining activity at 0.000305 µM is 60.1%. Further, in assay [1] (Dd2-Polδ, [Cipargamin] 0.914 nM, MEAN, read-out: PfATP4-associated ATPase activity (% of control)), the remaining activity at 0.000914 µM turned out to be 32.6%. In assay [1] (Dd2-Polδ, [Cipargamin] 2.743 nM, MEAN, read-out: PfATP4-associated ATPase activity (% of control)), the remaining activity at 0.002743 µM was found to be 25.1%. In assay [1] (Dd2-Polδ, [Cipargamin] 8.230 nM, MEAN, read-out: PfATP4-associated ATPase activity (% of control)), the remaining activity at 0.00823 µM was -9.5%. In addition, the remaining activity at 0.024691 µM in assay [1] (Dd2-Polδ, [Cipargamin] 24.691 nM, MEAN, read-out: PfATP4-associated ATPase activity (% of control)) was -14.7%. The remaining activity at 0.074074 µM in assay [1] (Dd2-Polδ, [Cipargamin] 74.074 nM, MEAN, read-out: PfATP4-associated ATPase activity (% of control)) is -19.7%. Further, in assay [1] (Dd2-Polδ, [Cipargamin] 222.222 nM, MEAN, read-out: PfATP4-associated ATPase activity (% of control)), the remaining activity at 0.222222 µM was -16.9%. Besides, the remaining activity at 0.666667 µM in assay [1] (Dd2-Polδ, [Cipargamin] 666.667 nM, MEAN, read-out: PfATP4-associated ATPase activity (% of control)) was -29.5%. In addition, in assay [1] (Dd2-Polδ, [Cipargamin] […], MEAN, read-out: PfATP4-associated ATPase activity (% of control)), the remaining activity at 1.25 pM came to 85.7%. For the same compound, the “IC50 for ATP4-associated ATPase activity” value in assay [1] is given as 2.5 ± 0.8 (4) nM. Further, the IC90 is 4.6 nM and 3.5 nM in the assay on NF54^WT parasites (setting [3]); 3.6 nM in the assay on NF54^WT parasites (setting [5]); 3.8 nM with NF54^WT parasites (setting [6]). The “FC (IC50)” value in the assay with NF54^WT parasites (NF54WT) turned out to be 1.0 fold. The “FC (IC90)” value with NF54^WT parasites (NF54WT) worked out at 1.0 fold. The IC50 is 2.8 nM and 2.5 nM and 2.6 nM with NF54^WT parasites (setting [4]); 2.64 nM with NF54^WT parasites (setting [7]); 2.7 nM in the assay with NF54^WT parasites (setting [8]); 2920 nM in assay [2] (setting [9]); 2920 ± 200 nM in assay [2] (setting [10]). Also, the “Parasite proliferation (% of no-cipargamin control), MEAN” value is reported as 99.1 % of no-cipargamin control in assay [2] (HCR2, [Cipargamin] 100 nM); 93.8 % of no-cipargamin control in assay [2] (HCR2, [Cipargamin] 200 nM); 90.7 % of no-cipargamin control in assay [2] (HCR2, [Cipargamin] 400 nM); 85.4 % of no-cipargamin control in assay [2] (HCR2, [Cipargamin] 800 nM); 71.9 % of no-cipargamin control in assay [2] (HCR2, [Cipargamin] 1600 nM); 46.7 % of no-cipargamin control in assay [2] (HCR2, [Cipargamin] 3200 nM). For the same compound, the “Parasite proliferation (% of no-cipargamin control), MEAN” value in assay [2] (HCR2, [Cipargamin] 6400 nM) is listed as 13.6 % of no-cipargamin control; in assay [2] (HCR2, [Cipargamin] 25600 nM), -0.466 % of no-cipargamin control. For the same compound, the “Parasite proliferation (% of no-cipargamin control)” value in assay [2] (HCR2, [Cipargamin] 100 nM, single experiments 1-16) was 100.1 % of no-cipargamin control and 100.0 % of no-cipargamin control and 96.3 % of no-cipargamin control and 89.0 % of no-cipargamin control.

`N#Cc1cc(NC(=O)[C@H]2c3ccccc3C(=O)N(CC(F)(F)F)[C@@H]2c2cccnc2)ccc1F` [(+)-SJ733]: the “IC50 for inhibition of ATP4-associated ATPase activity, MEAN” value in assay [1] (MEAN) was 5.23. For the same compound, the “IC50 for ATP4-associated ATPase activity” value in assay [1] is reported as 5.2 ± 2.3 (3) nM. The IC90 in the assay with NF54^WT parasites (setting [3]) is 171 nM and 165 nM and 176 nM; in the assay on NF54^WT parasites (setting [5]) it was 141 nM; with NF54^WT parasites (setting [6]), 164 nM. Moreover, the “FC (IC50)” value in the assay with NF54^WT parasites (NF54WT) is 1.0 fold. Besides, the “FC (IC90)” value with NF54^WT parasites (NF54WT) is 1.0 fold. Moreover, the half-inhibitory concentration (IC50) was 89.8 nM and 87.1 nM and 107 nM with NF54^WT parasites (setting [4]); 93.8 nM in the assay on NF54^WT parasites (setting [7]); 91.6 nM with NF54^WT parasites (setting [8]); 17600 nM in assay [2] (setting [9]); 17600 nM in assay [2] (setting [10]).

For the origin of these results see PMC9525273 (Nature Communications, 2022).
